Reference: patent US20230263822A1, “MODULATION OF FACTOR 11 EXPRESSION” (Ionis Pharmaceuticals, Inc., priority 2008, published 2023)
pIC50: −log10 of the molar value.

Experiments:
Type in all cases: cell-based
[1] = tested on: human Factor 11 mRNA; test: Dose-dependent inhibition of human Factor 11 in HepB3 cells, lipofectin (Example 7); settings: for percent inhibition of Factor 11 mRNA relative to untreated control cells: ~16 hours
Experimental: Cells were plated at a density of 4,000 cells per well and transfected using lipofectin reagent with 2.3 nM, 4.7 nM, 9.4 nM, 18.75 nM, 37.5 nM, and 75 nM concentrations of antisense oligonucleotide, as specified in Table 14. After a treatment period of approximately 16 hours, RNA was isolated from the cells and human Factor 11 mRNA levels were measured by quantitative real-time PCR. Human Factor 11 primer probe set RTS 2966 was used to measure mRNA levels. Factor 11 mRNA levels were adjusted according to total RNA content, as measured by RIBOGREEN. Results are presented as percent inhibition of Factor 11, relative to untreated control cells.

[2] = tested on: human Factor 11 mRNA; test: Dose-dependent inhibition of human Factor 11 in HepG2 cells, electroporation 625-20,000 nM (Example 5); settings: ~16 hours
Experimental: The gapmers were also transfected via electroporation and their dose dependent inhibition of human Factor 11 mRNA was measured. Cells were plated at a density of 20,000 cells per well and transfected via electroporation with 625 nM, 1250 nM, 2500 nM, 5,000 nM, 10,000 nM, and 20,000 nM concentrations of antisense oligonucleotide, as specified in Table 12. After a treatment period of approximately 16 hours, RNA was isolated from the cells and human Factor 11 mRNA levels were measured by quantitative real-time PCR. Human Factor 11 primer probe set RTS 2966 was used to measure mRNA levels. Factor 11 mRNA levels were adjusted according to total RNA content, as measured by RIBOGREEN. Results are presented as percent inhibition of human Factor 11, relative to untreated control cells.

[3] = tested on: human Factor 11 mRNA; test: Dose-dependent inhibition of human Factor 11 in HepG2 cells, lipofectin 2.34-75 nM (Example 5); settings: for percent inhibition of human Factor 11 mRNA relative to untreated control cells: ~16 hours
Experimental: Cells were plated at a density of 10,000 cells per well and transfected using lipofectin reagent with 2.34 nM, 4.69 nM, 9.375 nM, 18.75 nM, 37.5 nM, and 75 nM concentrations of antisense oligonucleotide, as specified in Table 11. After a treatment period of approximately 16 hours, RNA was isolated from the cells and human Factor 11 mRNA levels were measured by quantitative real-time PCR. Human Factor 11 primer probe set RTS 2966 was used to measure mRNA levels. Factor 11 mRNA levels were adjusted according to total RNA content, as measured by RIBOGREEN. Results are presented as percent inhibition of human Factor 11, relative to untreated control cells.

Row | Substance | pIC50 [1] | percent inhibition of Factor 11 mRNA relative to untreated control cells ([1]; 2.3 nM) [%] | percent inhibition of Factor 11 mRNA relative to untreated control cells ([1]; 4.7 nM) [%] | percent inhibition of Factor 11 mRNA relative to untreated control cells ([1]; 9.4 nM) [%] | percent inhibition of Factor 11 mRNA relative to untreated control cells ([1]; 18.75 nM) [%] | percent inhibition of Factor 11 mRNA relative to untreated control cells ([1]; 37.5 nM) [%] | percent inhibition of Factor 11 mRNA relative to untreated control cells ([1]; 75 nM) [%] | percent inhibition of human Factor 11 mRNA relative to untreated control cells ([2]; 625 nM) [%] | percent inhibition of human Factor 11 mRNA relative to untreated control cells ([2]; 1250 nM) [%] | percent inhibition of human Factor 11 mRNA relative to untreated control cells ([2]; 2500 nM) [%] | percent inhibition of human Factor 11 mRNA relative to untreated control cells ([2]; 5000 nM) [%] | percent inhibition of human Factor 11 mRNA relative to untreated control cells ([2]; 10000 nM) [%] | percent inhibition of human Factor 11 mRNA relative to untreated control cells ([2]; 20000 nM) [%] | pIC50 [3] | percent inhibition of human Factor 11 mRNA relative to untreated control cells ([3]; 2.34 nM) [%] | percent inhibition of human Factor 11 mRNA relative to untreated control cells ([3]; 4.69 nM) [%] | percent inhibition of human Factor 11 mRNA relative to untreated control cells ([3]; 9.375 nM) [%] | percent inhibition of human Factor 11 mRNA relative to untreated control cells ([3]; 18.75 nM) [%] | percent inhibition of human Factor 11 mRNA relative to untreated control cells ([3]; 37.5 nM) [%] | percent inhibition of human Factor 11 mRNA relative to untreated control cells ([3]; 75 nM) [%]
1 | 416850 (antisense TGCACAGTTTCTGGCAGGCC; 5-10-5 gapmer, further chemistry not given here) [compound 416850] | 7.89 | 22 | 32 | 43 | 56 | 75 | 60 | 69 | 80 | 87 | 90 | 93 | 96 | 7.89 | 24 | 31 | 49 | 55 | 70 | 77
2 | 416858 (antisense ACGGCATTGGTGCACAGTTT; 5-10-5 gapmer, further chemistry not given here) [compound 416858] | 7.92 | 17 | 34 | 43 | 57 | 74 | 62 | 65 | 77 | 87 | 89 | 93 | 93 | 7.96 | 11 | 35 | 46 | 61 | 75 | 77
3 | 416864 (antisense GGCAGCGGACGGCATTGGTG; 5-10-5 gapmer, further chemistry not given here) [compound 416864] | 8.05 | 24 | 37 | 42 | 66 | 76 | 63 | 45 | 74 | 84 | 87 | 92 | 94 | 7.82 | 13 | 34 | 42 | 65 | 68 | 80
4 | 416892 (antisense GCCCTTCATGTCTAGGTCCA; 3-14-3 chimeric gapmer, further chemistry not given here) [compound 416892] | 8.05 | 28 | 34 | 50 | 68 | 82 | 72 | 66 | 86 | 96 | 97 | 100 | 100 | 8.05 | 14 | 34 | 49 | 70 | 84 | 93
